This data set in a line: MRI measurements of relaxation rates and relaxivities. The format is physicochemical. The settings on record: for r1: relaxivity, MRI measurement. An excerpt: MRI measurements: See Engström et al., Magn Reson Mater Phy, 19 (2006) 180-186.
Commercially available and clinically used Gd^3+-DPTA has under the same conditions lower values for 1/T1 and 1/T2 (e.g. 1/T1=0.005 ms^−1). Variations in relaxivities (r1 and r2) and in the relaxivity ratio (r2/r1) are illustrated by: […]

Two compounds from US20100111859A1, “Visualization of Biological Material by the Use of Coated Contrast Agents” (priority 2007, published 2010) can be followed below.

Structures are written as SMILES.

Turning to `[Cl][Gd]([Cl])[Cl]` [Gd^3+ (GDCl3)], the r1 came out at 10.5 mM⁻¹ s⁻¹.
On to `O=C([O-])CN(CCN(CC(=O)[O-])CC(=O)O)CCN(CC(=O)[O-])CC(=O)O.[Gd+3]` [Gd^3+-DTPA], for which the r1 is 4.1 mM⁻¹ s⁻¹. For the setting “relaxation rate at 1 mM Gd”, the “1/T1 (1 mM)” value stood at 0.005 ms^−1. The 1/T2 entry (relaxation rate, result in words) was “lower”.
